How the values were obtained:
Format in all cases: physicochemical
[1] = Stability of compound in TRIS buffer at pH 8 assessed as compound conversion in presence of DTT measured for 2 to 90 mins by LC-MS analysis; details: time 2-90 min
[2] = Stability of compound in TRIS buffer at pH 8 assessed as compound conversion in presence of DTT measured after 90 mins by LC-MS analysis; details: TRIS buffer with DTT, read-out: Drug metabolism
[3] = Stability of compound in TRIS buffer at pH 8 assessed as compound conversion in presence of DTT measured after 15 mins by LC-MS analysis; details: TRIS buffer with DTT, read-out: Drug metabolism

Stability [1]	degraded at 1.5 h [2] [%]	degraded at 0.25 h [3] [%]	Compound
Unstable	100	60	Nc1ncnc2c1ncn2[C@@H]1O[C@H](CN(CC[C@H](N)C(=O)O)S(=O)(=O)c2ccc(Br)c([N+](=O)[O-])c2)[C@@H](O)[C@H]1O
Unstable			Nc1ncnc2c1ncn2[C@@H]1O[C@H](CN(CC[C@H](N)C(=O)O)S(=O)(=O)c2ccc(F)c([N+](=O)[O-])c2)[C@@H](O)[C@H]1O
Unstable	100	60	Nc1ncnc2c1ncn2[C@@H]1O[C@H](CN(CC[C@H](N)C(=O)O)S(=O)(=O)c2ccc(Cl)c([N+](=O)[O-])c2)[C@@H](O)[C@H]1O

Source: ChEMBL document CHEMBL5247681, “Covalent S-Adenosylhomocysteine-Based DNA Methyltransferase 2 Inhibitors with a New Type of Aryl Warhead” (ACS Med Chem Lett, 2023)
